US10442835B2, “Water-soluble rapamycin derivatives” (Zhejiang Hisun Pharmaceutical Co., Ltd., priority 2016, dated 2019)
Several values for one entry are separate records, joined by “and”; a condition that tells them apart may be missing. Equal entries are not always repeated.

Experiments:
[1] = system: human liver cancer cell HepG2; assay: In vitro activity assay, growth of HepG2 (thymidine incorporation); assay type: cell-based; settings: 48 h
Excerpt: (§1) The anti-tumor activity and toxicity of the compounds according to the present invention can be assayed through standard operational procedures of pharmacological experiment. The experiments carried out herein can test the inhibitory effect of the compounds according to the present invention on the growth of human liver cancer cell HepG2, lung cancer cell NCI460, prostate cancer cell DU145, prostate cancer cell PC3, and human breast cancer cell MDA-MB-435. The operational procedure used is briefly described below by taking the inhibitory activity assay against human liver cancer cell HepG2 as an example.
Human liver cancer cell HepG2 grew in the follow medium:
Preparation of the growth medium: BRL minimum essential medium with Earle Salts (500 mL), with the addition of the following agents:
(§2) The operational procedure for the assay is as follows:
(§3) 1. Cells after being trypsinized were inoculated in 96-well plates at a concentration of 10^4 cells/well, and allowed to grow in a medium with a final volume of 200 μL. The 96-well plates after inoculation are allowed to stand for 24 hours at 37° C., in order to allow the cells to adhere to the surface of the wells.
(§4) 2. The medium was removed by carefully pipetting without disturbing the cell monolayer. 200 μL Fresh medium was added into each well. It is arranged to make it possible to collect samples from enough wells to run the experiments in triplicate.
(§5) 3. The compounds to be tested according to the present invention were dissolved into 10 μL phosphate buffered solution (PBS) and incubated for 48 h at 37° C.
(§6) 4. In the last 6 h of incubation, cells in each well of the 96-well plates were labeled by 1 microcurie T thymidine (New England Nuclear thymidine), by adding 10 μL PBS containing 1 microcurie T thymidine (which was added into the PBS on the day of collecting the samples for test). The 96-well plates were then returned to the incubator and incubated for the last 6 h.
(§7) 5. Without disturbing the cell monolayer, the radioactive medium was removed by pipetting. Then 50 μL of BRL 10×trypsin was added to each well, followed by incubation at 37° C. for 10 minutes or until the cell monolayer was detached from the bottom (or the wall) of each well. Samples were collected on glass-fiber diskettes using a Skatron 96-well cell harvester. Cells depositing on the glass-fiber diskettes were counted in a Wallac Betaplate counter.

lung cancer cell NCI460 = assay: In vitro activity assay, growth of NCI460; assay type: cell-based; settings: NCI-460, 48 h
Excerpt: as §1, §2, §3, §4, §5, §6, §7

[2] = system: prostate cancer cell DU145; assay: In vitro activity assay, growth of DU145; assay type: cell-based; settings: Homo sapiens; DU-145; 48 h
Excerpt: as §1, §2, §3, §4, §5, §6, §7

prostate cancer cell PC3 = assay: In vitro activity assay, growth of PC3; assay type: cell-based; settings: 48 h
Excerpt: as §1, §2, §3, §4, §5, §6, §7

[3] = system: human breast cancer cell MDA-MB-435; assay: In vitro activity assay, growth of MDA-MB-435; assay type: cell-based; settings: 48 h
Excerpt: as §1, §2, §3, §4, §5, §6, §7

[4] = system: human lung cancer cell NCI-H460; assay: In vivo inhibitory activity against NCI-H460 tumor in nude mice; settings: everolimus 5 mg/kg, compound I-1 6.8 mg/kg, qw 4×
DU145 = assay: In vivo tumor inhibitory efficacy against DU145 tumor in nude mice, intragastrical vs injection; settings: for Mean Volume of Tumor: 3×/w, 4 w; for tumor inhibitory effect compared with intragastrical everolimus 5 mg/kg: compound I-1 tail vein injection, end of the test
Procedure: (§8) DU145 (the 3rd generation) tumors in the rapid proliferation stage inoculated in the axilla of nude mice were cut into tumor lumps with a size of 1 mm*1 mm*1 mm and then were inoculated subcutaneously to the right limb of nude mice using a trocar under a sterile condition. When the tumors grow to 150-200 mm^3, the mice were randomly divided into three groups and then administrated with the compounds for 4 weeks. The major diameter (a) and the minor diameter (b) of the tumors were measured 2 or 3 times a week. The tumor volume (TV) was calculated with the following equation: TV=½×a×b^2. Tumors were stripped and weighted at Day 28 and the tumor inhibition rate was calculated using the following equation: (tumor weight of control−tumor weight of experimental group)/tumor weight of control×100%.
(§9) The nude mice were divided into 3 groups with 4 mice per group when the tumors averagely grew to about 185-200 mm^3, depending on the growth regularity of the tumor and the dosage regimen.

[5] = system: human renal cell carcinoma OS-RC-2; assay: In vivo inhibitory activity against human renal cell carcinoma OS-RC-2 in nude mice; settings: for Tumor Weight ± SD: end of experiment
Procedure: The tumor inhibition rate was calculated.

[6] = Body weight of DU145 tumor nude mice; settings: 3×/w, 4 w;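 also: dosing started once xenografts reached 150-200 mm^3, with mice randomized into three groups, loss of body weight served as an indirect sign of drug toxicity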
Procedure: as §8, §9
G1: positive drug group: Everolimus (5 mg/kg, qw, 4 w, 3×/w); administration route: intragastrical administration;

[7] = Day 0, G2 compound I-1 3.4 mg/kg tail vein injection
[8] = Day 0, G3 compound I-1 1.7 mg/kg tail vein injection
[9] = Day 3, G2 compound I-1 3.4 mg/kg tail vein injection
[10] = Day 3, G3 compound I-1 1.7 mg/kg tail vein injection
[11] = Day 7, G2 compound I-1 3.4 mg/kg tail vein injection
[12] = Day 7, G3 compound I-1 1.7 mg/kg tail vein injection
[13] = Day 10, G2 compound I-1 3.4 mg/kg tail vein injection
[14] = G4 compound I-1 8.12 mg/kg ig 3×/qw
[15] = G5 compound I-1 2.0 mg/kg iv 3×/qw
[16] = G6 compound I-1 8.12 mg/kg iv 3×/qw
[17] = G7 compound I-1 32.7 mg/kg iv 1×/qw

Structure (SMILES): CO[C@H]1C[C@@H]2CC[C@@H](C)[C@@](O)(O2)C(=O)C(=O)N2CCCC[C@H]2C(=O)OC([C@H](C)C[C@@H]2CC[C@@H](OCCOC(=O)CSC[C@H](NC(=O)CC[C@H](N)C(=O)O)C(=O)NCC(=O)O)[C@H](OC)C2)CC(=O)[C@H](C)/C=C(\C)[C@@H](O)[C@@H](OC)C(=O)[C@H](C)C[C@@H](C)\C=C/C=C/C=C/1C (stereo partly shown) [Compound I-1]
- IC50 [1]: 11.127 ± 0.005 µM
- IC50 (lung cancer cell NCI460): 27.204 ± 0.007 µM
- IC50 [2]: 56.215 ± 0.003 µM
- IC50 (prostate cancer cell PC3): 25.978 ± 0.008 µM
- IC50 [3]: 55.345 ± 0.005 µM
- Mean Volume of Tumor ([4]; Day 0): 195.1545 mm^3
- Mean Volume of Tumor ([4]; Day 3): 232.4297 mm^3
- Mean Volume of Tumor ([4]; Day 7): 273.2138 mm^3
- Mean Volume of Tumor ([4]; Day 10): 360.0897 mm^3
- Mean Volume of Tumor ([4]; Day 14): 506.8288 mm^3
- Mean Volume of Tumor ([4]; Day 17): 612.8810 mm^3
- Mean Volume of Tumor ([4]; Day 21): 934.2806 mm^3
- Mean Volume of Tumor ([4]; Day 24): 1089.1761 mm^3
- Tumor Inhibition Rate ([4]; Day 28, by tumor weight): 68% and 68.29%
- Mean Volume of Tumor ([4]; Day 28): 1354.8457 mm^3
- Tumor Weight ± SD ([4]; Day 28): 0.8463 ± 0.1582 g
- Mean Volume of Tumor (DU145; [7]): 189.84 mm^3
- Mean Volume of Tumor (DU145; [8]): 187.29 mm^3
- Mean Volume of Tumor (DU145; [9]): 203.79 mm^3
- Mean Volume of Tumor (DU145; [10]): 235.34 mm^3
- Mean Volume of Tumor (DU145; [11]): 223.91 mm^3
- Mean Volume of Tumor (DU145; [12]): 250.90 mm^3
- Mean Volume of Tumor (DU145; [13]): 245.45 mm^3
- Mean Volume of Tumor (DU145; Day 10, G3 compound I-1 1.7 mg/kg tail vein injection): 269.25 mm^3
- Mean Volume of Tumor (DU145; Day 14, G2 compound I-1 3.4 mg/kg tail vein injection): 255.59 mm^3
- Mean Volume of Tumor (DU145; Day 14, G3 compound I-1 1.7 mg/kg tail vein injection): 281.22 mm^3
- Mean Volume of Tumor (DU145; Day 17, G2 compound I-1 3.4 mg/kg tail vein injection): 261.55 mm^3
- Mean Volume of Tumor (DU145; Day 17, G3 compound I-1 1.7 mg/kg tail vein injection): 280.18 mm^3
- Mean Volume of Tumor (DU145; Day 21, G2 compound I-1 3.4 mg/kg tail vein injection): 257.96 mm^3
- Mean Volume of Tumor (DU145; Day 21, G3 compound I-1 1.7 mg/kg tail vein injection): 300.52 mm^3
- Mean Volume of Tumor (DU145; Day 24, G2 compound I-1 3.4 mg/kg tail vein injection): 241.11 mm^3
- Mean Volume of Tumor (DU145; Day 24, G3 compound I-1 1.7 mg/kg tail vein injection): 288.39 mm^3
- Mean Volume of Tumor (DU145; Day 28, G2 compound I-1 3.4 mg/kg tail vein injection): 267.54 mm^3
- Mean Volume of Tumor (DU145; Day 28, G3 compound I-1 1.7 mg/kg tail vein injection): 323.75 mm^3
- tumor inhibitory effect compared with intragastrical everolimus 5 mg/kg (DU145; dosage equivalent to a quarter of that of everolimus (1.7 mg/kg)): substantially the same tumor inhibitory effect as that of intragastrical administration of everolimus
- tumor inhibitory effect compared with intragastrical everolimus 5 mg/kg (DU145; dosage equivalent to half of that of everolimus (3.4 mg/kg)): significantly superior to that of intragastric administration of everolimus
- Tumor Inhibition Rate [5, 14]: 55.6%
- Tumor Inhibition Rate [5, 15]: 57.1%
- Tumor Inhibition Rate [5, 16]: 59.9%
- Tumor Inhibition Rate [5, 17]: 60.6%
- tumor inhibitory effect (FIG. 7) ([5]; compound I-1 injection, 2.0 mg/Kg 3 times a week or 32.7 mg/Kg once a week): a good tumor inhibitory effect
- Tumor Weight ± SD [5, 14]: 0.3002 ± 0.1108 g
- Tumor Weight ± SD [5, 15]: 0.2905 ± 0.0936 g
- Tumor Weight ± SD [5, 16]: 0.2710 ± 0.1695 g
- Tumor Weight ± SD [5, 17]: 0.2669 ± 0.1023 g
- Body Weight, mean value [6, 7]: 25.30 g
- Body Weight, mean value [6, 8]: 26.86 g
- Body Weight, mean value [6, 9]: 25.92 g
- Decrease rate (body weight) [6, 9]: −2.45%
- Body Weight, mean value [6, 10]: 27.32 g
- Decrease rate (body weight) [6, 10]: −1.70%
- Decrease in body weight ([6]; Day 3 vs Day 0, G2 compound I-1 3.4 mg/kg tail vein injection): -0.62 g
- Decrease in body weight ([6]; Day 3 vs Day 0, G3 compound I-1 1.7 mg/kg tail vein injection): -0.46 g
- Body Weight, mean value [6, 11]: 26.13 g
- Decrease rate (body weight) [6, 11]: −3.29%
- Body Weight, mean value [6, 12]: 27.17 g
- Decrease rate (body weight) [6, 12]: −1.16%
- Decrease in body weight ([6]; Day 7 vs Day 0, G2 compound I-1 3.4 mg/kg tail vein injection): -0.83 g
- Decrease in body weight ([6]; Day 7 vs Day 0, G3 compound I-1 1.7 mg/kg tail vein injection): -0.31 g
- Body Weight, mean value [6, 13]: 26.15 g
- Decrease rate (body weight) [6, 13]: −3.37%
